Drawing on article PMC6698751 (2019), this text covers Kd and binding for one molecule.

The test system of assay [1] is glutamine-II riboswitch (unmodified; RNA used for calorimetry) (RNA, riboswitch) CGUUCACCCUUCGGGGCGCAUGAAAUGGGAGUAGGGAACGGGAUUCUCAU
The experiment in a line: isothermal titration calorimetry. The conditions noted are these: 100 mM K+, 10 mM Mg2+; 40 mM HEPES-K pH 7.0 (7.2 in Figure 4 legend), 298 K; mean of three titrations.

The subject of assay [2] is G18 O2'H glutamine-II riboswitch (RNA, riboswitch, 2'-deoxy at 18 (2'-hydroxyl of G18 removed)) CGUUCACCCUUCGGGGCGCAUGAAAUGGGAGUAGGGAACGGGAUUCUCAU
Description: isothermal titration calorimetry. The following applies: 100 mM K+, 10 mM Mg2+; 40 mM HEPES-K pH 7.0, 298 K; 2-4 mM L-glutamine in syringe. Background: ITC needs no label: the signal is the heat of the interaction.

The test system of assay [3] is two-piece glutamine-II riboswitch (RNA, riboswitch) CGUUCACCCUUCGGGGCGCA/UGAAAUGGGAGUAGGGAACGGGAUUCUCAU
The experiment in a line: isothermal titration calorimetry. The conditions noted are these: 100 mM K+, 10 mM Mg2+; equimolar mixture of two strands, 40 mM HEPES-K pH 7.0, 298 K.

In assay [4] the test system is C1Z glutamine-II riboswitch (RNA, riboswitch, zebularine at 1 (C1Z)) CGUUCACCCUUCGGGGCGCAUGAAAUGGGAGUAGGGAACGGGAUUCUCAU
Description: isothermal titration calorimetry. The following applies: 100 mM K+, 10 mM Mg2+; 40 mM HEPES-K pH 7.0, 298 K; no measurable heat; 2-4 mM L-glutamine in syringe.

In assay [5] the test system is C39Z glutamine-II riboswitch (RNA, riboswitch, zebularine at 39 (C39Z)) CGUUCACCCUUCGGGGCGCAUGAAAUGGGAGUAGGGAACGGGAUUCUCAU
The experiment in a line: isothermal titration calorimetry. The conditions noted are these: 100 mM K+, 10 mM Mg2+; 40 mM HEPES-K pH 7.0, 298 K; 2-4 mM L-glutamine in syringe.

The test system of assay [6] is glutamine-II riboswitch (RNA used for crystallization) (RNA, riboswitch, 5-bromocytidine at 8 and 9) CGUUCACCCUUCGGGGCGCAUGAAAUGGGAGUAGGGAACGGGAUUCUCAU
Description: X-ray crystallography, 2.3 Å. The conditions noted are these: Mg2+ in PDB record; strand-exchanged dimer; metal ion directly bound to glutamine carboxylate.

A word on the Kd: it is the equilibrium constant for the complex coming apart. Lower therefore signals tighter binding. `NC(=O)CC[C@H](N)C(=O)O` yielded a Kd in assay [1] of 190 ± 90 µM. Also, the binding result is “no” in assay [2]; “yes” in assay [3]; “no” in assay [4]; “no” in assay [5]; “yes” in assay [6].
